# In patent US10167262B2, “Herbicidal substituted 3-arylpyrazoles” (FMC CORPORATION, priority 2014, dated 2019):
# Read-outs that look alike come from different tables or passages of the source.
# What was measured:
# Format in all cases: in vivo
# [1] = system: chickweed (common chickweed, Stellaria media); test: Test C postemergence greenhouse test, plant response rating 0-100; settings: Stellaria media, post-emergence
# Outline: (§1)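 Potted in peat/vermiculite mix; postemergence application at 1–4 leaves (2–18 cm); greenhouse 13–15 d; visual score 0–100 relative to untreated plants; dash = no test result.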
# wild oat (Avena fatua) = test: as above; settings: Avena fatua, post-emergence
# Outline: as §1
# kochia (Kochia scoparia) = test: as above; settings: Bassia scoparia, post-emergence
# Outline: as §1
# [2] = system: wheat (Triticum aestivum); test: Test A pre-/postemergence greenhouse herbicide test, visual injury rating 0-100; settings: for plant injury at 500 g/ha: 500 g ai/ha
# Outline: (§2)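 Scale 0–100 (none to complete control), visual, versus untreated controls after approx. 10 greenhouse days. Pre: directed soil spray at planting. Post: 2–10 cm, one- to two-leaf plants. Non-phytotoxic solvent plus surfactant vehicle.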
# [3] = system: large (Lg) crabgrass (Digitaria sanguinalis); test: as above; settings: for pest or weed control at 500 g/ha: 500 g ai/ha
# Outline: as §2
# [4] = system: giant foxtail (Setaria faberii); test: as above; settings: for pest or weed control at 500 g/ha: 500 g ai/ha
# Outline: as §2
# [5] = system: morningglory (Ipomoea spp.); test: as above; settings: for pest or weed control at 500 g/ha: 500 g ai/ha
# Outline: as §2
# [6] = system: velvetleaf (Abutilon theophrasti); test: as above; settings: for pest or weed control at 500 g/ha: 500 g ai/ha
# Outline: as §2
# [7] = system: barnyardgrass (Echinochloa crus-galli); test: as above; settings: for pest or weed control at 500 g/ha: 500 g ai/ha
# Outline: as §2
# corn (Zea mays) = test: as above; settings: for plant injury at 500 g/ha: 500 g ai/ha
# Outline: as §2
# [8] = system: pigweed (Amaranthus retroflexus); test: as above; settings: for pest or weed control at 500 g/ha: 500 g ai/ha
# Outline: as §2
# [9] = system: johnsongrass (Sorghum halepense); test: Test C pre-/postemergence greenhouse test, plant response rating 0-100; settings: Sorghum halepense; for pest or weed control at 62 g/ha: 62 g ai/ha; for pest or weed control at 125 g/ha: 125 g ai/ha; for pest or weed control at 250 g/ha: 250 g ai/ha
# Outline: (§3)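 Pre-emergence soil and post-emergence foliar sprays were applied simultaneously to seeded loam–sand pots and to 1–4-leaf plants in peat medium; greenhouse holding lasted 13–15 days, then plants were scored visually from 0 (no effect) to 100 (complete control).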
# [10] = system: giant foxtail (Setaria faberii); test: as above; settings: Setaria faberi; for pest or weed control at 62 g/ha: 62 g ai/ha; for pest or weed control at 125 g/ha: 125 g ai/ha; for pest or weed control at 250 g/ha: 250 g ai/ha
# Outline: as §3
# [11] = system: winter wheat (Triticum aestivum); test: as above; settings: Triticum aestivum; for plant injury at 62 g/ha: 62 g ai/ha; for plant injury at 125 g/ha: 125 g ai/ha; for plant injury at 250 g/ha: 250 g ai/ha
# Outline: as §3
# [12] = post-emergence, Postemergence, read-out: Plant response rating (0 to 100), Johnsongrass
# [13] = post-emergence, Postemergence, scale 0 to 100
# [14] = pre-emergence, Preemergence, read-out: Plant response rating, Johnsongrass
# [15] = pre-emergence, Preemergence, 500 g ai/ha
# [16] = post-emergence, Postemergence, read-out: Plant response rating (0 to 100), Foxtail, Giant
# [17] = pre-emergence, Preemergence, read-out: Plant response rating, Foxtail, Giant
# [18] = post-emergence, Postemergence, read-out: Plant response rating (0 to 100), Wheat
# [19] = pre-emergence, Preemergence, read-out: Plant response rating, Wheat
structure (smiles),measurement,setting,value
"Cn1cc(C(=O)c2ccccc2)c(-c2cc(Cl)cc(Cl)c2)n1 [Compound 54, [3-(3,5-dichlorophenyl)-1-methyl-1H-pyrazol-4-yl]phenylmethanone]",pest or weed control at 31 g/ha,[1]; 31 g ai/ha,0%
same,pest or weed control at 62 g/ha,[1]; 62 g ai/ha,90%
same,pest or weed control at 125 g/ha,[1]; 125 g ai/ha,100%
same,pest or weed control at 250 g/ha,"[1]; 250 g ai/ha, scale 0 to 100",100%
same,pest or weed control at 62 g/ha,wild oat (Avena fatua); 62 g ai/ha,0%
same,pest or weed control at 125 g/ha,wild oat (Avena fatua); 125 g ai/ha,0%
same,pest or weed control at 250 g/ha,"wild oat (Avena fatua); 250 g ai/ha, scale 0 to 100",0%
same,pest or weed control at 62 g/ha,kochia (Kochia scoparia); 62 g ai/ha,60%
same,pest or weed control at 125 g/ha,kochia (Kochia scoparia); 125 g ai/ha,65%
same,pest or weed control at 250 g/ha,"kochia (Kochia scoparia); 250 g ai/ha, scale 0 to 100",70%
same,"Wheat plant response rating (0 = no effect, 100 = complete control)","[2]; Preemergence, 125 g ai/ha",0
same,plant injury at 125 g/ha,"[2]; Triticum aestivum, post-emergence, 240 h, Postemergence, 125 g ai/ha, read-out: Plant response rating (0 to 100 scale), Wheat",0%
same,plant injury at 500 g/ha,"[2]; Triticum aestivum, post-emergence, 240 h, Postemergence, read-out: Plant response rating (0 to 100 scale), Wheat",0%
same,plant injury at 500 g/ha,"[2]; Triticum aestivum, pre-emergence, 240 h, Preemergence, read-out: Plant response rating (0 to 100 scale), Wheat",0%
same,pest or weed control at 125 g/ha,"[3]; Digitaria sanguinalis, post-emergence, 240 h, Postemergence, 125 g ai/ha, read-out: Plant response rating (0 to 100 scale), Crabgrass, Large",0%
same,pest or weed control at 500 g/ha,"[3]; Digitaria sanguinalis, post-emergence, 240 h, Postemergence, read-out: Plant response rating (0 to 100 scale), Crabgrass, Large",0%
same,pest or weed control at 500 g/ha,"[3]; Digitaria sanguinalis, pre-emergence, 240 h, Preemergence, read-out: Plant response rating (0 to 100 scale), Crabgrass, Large",0%
same,"Crabgrass, Large plant response rating (0 = no effect, 100 = complete control)","[3]; Preemergence, 125 g ai/ha",0
same,"Foxtail, Giant plant response rating (0 = no effect, 100 = complete control)","[4]; Preemergence, 125 g ai/ha",0
same,pest or weed control at 125 g/ha,"[4]; Setaria faberi, post-emergence, 240 h, Postemergence, 125 g ai/ha, read-out: Plant response rating (0 to 100 scale), Foxtail, Giant",0%
same,pest or weed control at 500 g/ha,"[4]; Setaria faberi, post-emergence, 240 h, Postemergence, read-out: Plant response rating (0 to 100 scale), Foxtail, Giant",0%
same,pest or weed control at 500 g/ha,"[4]; Setaria faberi, pre-emergence, 240 h, Preemergence, read-out: Plant response rating (0 to 100 scale), Foxtail, Giant",0%
same,pest or weed control at 125 g/ha,"[5]; Ipomoea, post-emergence, 240 h, Postemergence, 125 g ai/ha, read-out: Plant response rating (0 to 100 scale), Morningglory",0%
same,pest or weed control at 500 g/ha,"[5]; Ipomoea, post-emergence, 240 h, Postemergence, read-out: Plant response rating (0 to 100 scale), Morningglory",0%
same,pest or weed control at 500 g/ha,"[5]; Ipomoea, pre-emergence, 240 h, Preemergence, read-out: Plant response rating (0 to 100 scale), Morningglory",0%
same,"Morningglory plant response rating (0 = no effect, 100 = complete control)","[5]; Preemergence, 125 g ai/ha",0
same,pest or weed control at 125 g/ha,"[6]; Abutilon theophrasti, post-emergence, 240 h, Postemergence, 125 g ai/ha, read-out: Plant response rating (0 to 100 scale), Velvetleaf",90%
same,pest or weed control at 500 g/ha,"[6]; Abutilon theophrasti, post-emergence, 240 h, Postemergence, read-out: Plant response rating (0 to 100 scale), Velvetleaf",100%
same,pest or weed control at 500 g/ha,"[6]; Abutilon theophrasti, pre-emergence, 240 h, Preemergence, read-out: Plant response rating (0 to 100 scale), Velvetleaf",60%
same,"Velvetleaf plant response rating (0 = no effect, 100 = complete control)","[6]; Preemergence, 125 g ai/ha",30
same,pest or weed control at 125 g/ha,"[7]; Echinochloa crus-galli, post-emergence, 240 h, Postemergence, 125 g ai/ha, read-out: Plant response rating (0 to 100 scale), Barnyardgrass",0%
same,pest or weed control at 500 g/ha,"[7]; Echinochloa crus-galli, post-emergence, 240 h, Postemergence, read-out: Plant response rating (0 to 100 scale), Barnyardgrass",0%
same,pest or weed control at 500 g/ha,"[7]; Echinochloa crus-galli, pre-emergence, 240 h, Preemergence, read-out: Plant response rating (0 to 100 scale), Barnyardgrass",0%
same,"Barnyardgrass plant response rating (0 = no effect, 100 = complete control)","[7]; Preemergence, 125 g ai/ha",0
same,"Corn plant response rating (0 = no effect, 100 = complete control)","corn (Zea mays); Preemergence, 125 g ai/ha",0
same,plant injury at 125 g/ha,"corn (Zea mays); Zea mays, post-emergence, 240 h, Postemergence, 125 g ai/ha, read-out: Plant response rating (0 to 100 scale), Corn",0%
same,plant injury at 500 g/ha,"corn (Zea mays); Zea mays, post-emergence, 240 h, Postemergence, read-out: Plant response rating (0 to 100 scale), Corn",0%
same,plant injury at 500 g/ha,"corn (Zea mays); Zea mays, pre-emergence, 240 h, Preemergence, read-out: Plant response rating (0 to 100 scale), Corn",0%
same,pest or weed control at 125 g/ha,"[8]; Amaranthus retroflexus, post-emergence, 240 h, Postemergence, 125 g ai/ha, read-out: Plant response rating (0 to 100 scale), Pigweed",90%
same,pest or weed control at 500 g/ha,"[8]; Amaranthus retroflexus, post-emergence, 240 h, Postemergence, read-out: Plant response rating (0 to 100 scale), Pigweed",100%
same,pest or weed control at 500 g/ha,"[8]; Amaranthus retroflexus, pre-emergence, 240 h, Preemergence, read-out: Plant response rating (0 to 100 scale), Pigweed",90%
same,"Pigweed plant response rating (0 = no effect, 100 = complete control)","[8]; Preemergence, 125 g ai/ha",50
same,pest or weed control at 62 g/ha,[9]; [12],0%
same,pest or weed control at 125 g/ha,[9]; [12],0%
same,pest or weed control at 250 g/ha,[9]; [13],0%
same,pest or weed control at 62 g/ha,[9]; [14],0%
same,pest or weed control at 125 g/ha,[9]; [14],0%
same,pest or weed control at 250 g/ha,"[9]; pre-emergence, Preemergence",0%
same,pest or weed control at 500 g/ha,[9]; [15],0%
same,pest or weed control at 31 g/ha,"[10]; post-emergence, Postemergence, 31 g ai/ha, read-out: Plant response rating (0 to 100), Foxtail, Giant",0%
same,pest or weed control at 62 g/ha,[10]; [16],0%
same,pest or weed control at 125 g/ha,[10]; [16],5%
same,pest or weed control at 250 g/ha,[10]; [13],5%
same,pest or weed control at 62 g/ha,[10]; [17],0%
same,pest or weed control at 125 g/ha,[10]; [17],0%
same,pest or weed control at 250 g/ha,"[10]; pre-emergence, Preemergence",0%
same,pest or weed control at 500 g/ha,[10]; [15],0%
same,plant injury at 62 g/ha,[11]; [18],0%
same,plant injury at 125 g/ha,[11]; [18],0%
same,plant injury at 250 g/ha,[11]; [13],0%
same,plant injury at 62 g/ha,[11]; [19],0%
same,plant injury at 125 g/ha,[11]; [19],0%
same,plant injury at 250 g/ha,"[11]; pre-emergence, Preemergence",0%
same,plant injury at 500 g/ha,[11]; [15],0%
